The source of these data is ChEMBL document CHEMBL1800049, “Aryl 1,4-diazepane compounds as potent and selective CB2 agonists: optimization of drug-like properties and target independent parameters” (Bioorg Med Chem Lett, 2011).

Usually bioavailability stands for dose-corrected exposure relative to a reference, in per cent.

Molecules are shown by their SMILES.

The nature of series [1]: Oral bioavailability in cynomolgus monkey. The series is classed as ADME, organism-based, Macaca fascicularis. To be noted: in vivo.
A short description of series [2]: Permeability from apical to basolateral side of human Caco2 cells at 10 uM after […] by HPLC-MS/MS analysis. Format: ADME, cell-based. The conditions noted are these: Caco-2, read-out: permeability. A general note: Passage across Caco-2 layers is used to estimate intestinal permeability.
Series [3] in a line: Permeability from basolateral to apical side of human Caco2 cells at 10 uM after […] by HPLC-MS/MS analysis. To be noted: Caco-2, read-out: permeability. The series is classed as ADME, cell-based.

In series [1], `CC(C)(C)c1cc(NC(=O)N2CCCN(C(=O)C3CCOCC3)CC2)no1` showed a bioavailability of 3%. Moreover, the Papp A→B at […], 10 µM in series [2] was determined as 7 ×10⁻⁶ cm/s. For the same molecule, the Papp B→A at […], 10 µM in series [3] stood at 42 ×10⁻⁶ cm/s.
Regarding `CC(C)(C)c1ccc2oc(N3CCCN(C(=O)C4CCOCC4)CC3)nc2c1`, the Papp A→B at […], 10 µM in series [2] was 49 ×10⁻⁶ cm/s. The Papp B→A at […], 10 µM in series [3] was determined as 64 ×10⁻⁶ cm/s.
Taken in the same sequence, the figures for `O=C(C1CCOCC1)N1CCCN(c2nc3ccc(Cl)cc3s2)CC1` were 62 ×10⁻⁶ cm/s and 71 ×10⁻⁶ cm/s.
For `O=C(C1CCOCC1)N1CCCN(c2nc(-c3ccccc3)ns2)CC1` the same measures were 67 ×10⁻⁶ cm/s and 61 ×10⁻⁶ cm/s.
Taken in the same sequence, the figures for `O=C(C1CCOCC1)N1CCCN(c2nc(C(F)(F)F)c(Cl)s2)CC1` were 53 ×10⁻⁶ cm/s and 70 ×10⁻⁶ cm/s.
